± gives the standard deviation of the averaged measurements.

We go through seven test systems from the supplement of paper PMC6045584.

Compound in one assay: CCCS(=O)(=O)Nc1ccc(F)c(C(=O)c2c[nH]c3ncc(Cl)cc23)c1F [PLX-4720]
The assay is described as follows: surviving fraction relative to DMSO-only wells; higher = less growth inhibition. Particulars: exposure time: 5 days. In short, it runs like this: (§1)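 Tumour cell lines in log phase were plated in 384-well plates at 250–500 cells per well, then, after 24 hours, exposed continuously for five days to inhibitors at 0.5, 1, 5, 10, 50, 100, 500 and 1000 nM. Viability came from CellTiter-Glo luminescence, and surviving fraction is that signal normalised to the median of DMSO-only wells. Plates were read after 10 minutes at room temperature, and each line, screened three times, was kept only when replicate Pearson r was >0.7 and median Z' was >0.3.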

Compound in the next assay: CO[C@H]1C[C@@H]2CC[C@@H](C)[C@@](O)(O2)C(=O)C(=O)N2CCCC[C@H]2C(=O)O[C@H]([C@H](C)C[C@@H]2CC[C@@H](OCCO)[C@H](OC)C2)CC(=O)[C@H](C)/C=C(\C)[C@@H](O)[C@@H](OC)C(=O)[C@H](C)C[C@H](C)/C=C/C=C/C=C/1C [EVEROLIMUS]
Described as above. Particulars: exposure time: 5 days. In short, it runs like this:
as §1

In the case of G292 BONE, the surviving fraction with PLX-4720 (0.5 nM) is 0.893 ± 0.022; with PLX-4720 (1 nM) it was 0.977 ± 0.042; with PLX-4720 (5 nM), 0.973 ± 0.039; with PLX-4720 (10 nM), 0.972 ± 0.043; with PLX-4720 (50 nM) it was 0.956 ± 0.024; with PLX-4720 (100 nM), 1.0012 ± 0.00029. The surviving fraction in the assay with PLX-4720 (500 nM) came to 0.979 ± 0.026; in the assay with PLX-4720 (1000 nM) it was 0.973 ± 0.085; with EVEROLIMUS (0.5 nM), 0.803 ± 0.0075; with EVEROLIMUS (1 nM) it was 0.721 ± 0.038; with EVEROLIMUS (5 nM), 0.518 ± 0.015; in the assay with EVEROLIMUS (10 nM), 0.476 ± 0.024. The surviving fraction was 0.433 ± 0.0098 in the assay with EVEROLIMUS (50 nM), 0.436 ± 0.014 in the assay with EVEROLIMUS (100 nM), 0.408 ± 0.015 with EVEROLIMUS (500 nM) and 0.405 ± 0.01 with EVEROLIMUS (1000 nM).

Consider LNCAP PROSTATE, for which the surviving fraction with PLX-4720 (0.5 nM) turned out to be 1.17 ± 0.08; with PLX-4720 (1 nM) it was 1.08 ± 0.051; with PLX-4720 (5 nM), 1.15 ± 0.097; with PLX-4720 (10 nM), 1.12 ± 0.035; in the assay with PLX-4720 (50 nM) it was 0.892 ± 0.11; with PLX-4720 (100 nM) it was 0.846 ± 0.011. Further, the surviving fraction in the assay with PLX-4720 (500 nM) was found to be 0.898 ± 0.09; with PLX-4720 (1000 nM), 1.03 ± 0.12; with EVEROLIMUS (0.5 nM), 0.679 ± 0.048; with EVEROLIMUS (1 nM) it was 0.544 ± 0.012; with EVEROLIMUS (5 nM) it was 0.409 ± 0.033; in the assay with EVEROLIMUS (10 nM), 0.404 ± 0.043. Further, the surviving fraction came out at 0.285 ± 0.032 in the assay with EVEROLIMUS (50 nM), 0.288 ± 0.0055 with EVEROLIMUS (100 nM), 0.219 ± 0.0032 with EVEROLIMUS (500 nM) and 0.222 ± 0.0092 with EVEROLIMUS (1000 nM).

SCC003 HEADNECK: the surviving fraction is 0.76 ± 0.094 with PLX-4720 (0.5 nM); 0.825 ± 0.065 with PLX-4720 (1 nM); 0.829 ± 0.14 with PLX-4720 (5 nM); 0.81 ± 0.11 with PLX-4720 (10 nM); 0.983 ± 0.06 with PLX-4720 (50 nM); 1.02 ± 0.034 in the assay with PLX-4720 (100 nM). The surviving fraction worked out at 1.01 ± 0.035 with PLX-4720 (500 nM); 1.02 ± 0.17 in the assay with PLX-4720 (1000 nM); 1.07 ± 0.043 with EVEROLIMUS (0.5 nM); 1 ± 0.04 in the assay with EVEROLIMUS (1 nM); 1.04 ± 0.035 with EVEROLIMUS (5 nM); 0.961 ± 0.036 with EVEROLIMUS (10 nM). For the same test system, the surviving fraction in the assay with EVEROLIMUS (50 nM) was 0.953 ± 0.037; with EVEROLIMUS (100 nM) it was 0.94 ± 0.094; in the assay with EVEROLIMUS (500 nM), 0.923 ± 0.066; in the assay with EVEROLIMUS (1000 nM), 0.92 ± 0.061.

As to HUO3N1 BONE, the surviving fraction was determined as 0.849 ± 0.014 in the assay with PLX-4720 (0.5 nM); 0.886 ± 0.035 with PLX-4720 (1 nM); 0.92 ± 0.055 with PLX-4720 (5 nM); 0.913 ± 0.042 with PLX-4720 (10 nM); 0.989 ± 0.028 in the assay with PLX-4720 (50 nM); 1.02 ± 0.059 in the assay with PLX-4720 (100 nM). For the same test system, the surviving fraction worked out at 1.01 ± 0.063 with PLX-4720 (500 nM); 1.01 ± 0.067 with PLX-4720 (1000 nM); 0.751 ± 0.021 with EVEROLIMUS (0.5 nM); 0.688 ± 0.011 with EVEROLIMUS (1 nM); 0.655 ± 0.013 in the assay with EVEROLIMUS (5 nM); 0.632 ± 0.016 with EVEROLIMUS (10 nM). For the same test system, the surviving fraction is 0.624 ± 0.043 with EVEROLIMUS (50 nM), 0.617 ± 0.042 with EVEROLIMUS (100 nM), 0.581 ± 0.031 with EVEROLIMUS (500 nM) and 0.607 ± 0.023 with EVEROLIMUS (1000 nM).

In the case of C33A CERVIX, the surviving fraction is 1.03 ± 0.18 with PLX-4720 (0.5 nM); 0.994 ± 0.044 with PLX-4720 (1 nM); 1.12 ± 0.14 with PLX-4720 (5 nM); 1.13 ± 0.045 in the assay with PLX-4720 (10 nM); 1.01 ± 0.17 with PLX-4720 (50 nM); 1.05 ± 0.13 in the assay with PLX-4720 (100 nM). The surviving fraction with PLX-4720 (500 nM) was 0.946 ± 0.1; with PLX-4720 (1000 nM) it was 1.06 ± 0.13; with EVEROLIMUS (0.5 nM) it was 0.757 ± 0.058; with EVEROLIMUS (1 nM) it was 0.649 ± 0.06; in the assay with EVEROLIMUS (5 nM) it was 0.469 ± 0.017; in the assay with EVEROLIMUS (10 nM), 0.432 ± 0.0057. Further, the surviving fraction with EVEROLIMUS (50 nM) was 0.355 ± 0.027; with EVEROLIMUS (100 nM) it was 0.369 ± 0.028; with EVEROLIMUS (500 nM), 0.303 ± 0.051; with EVEROLIMUS (1000 nM), 0.277 ± 0.015.

As to HCC1395 BREAST, the surviving fraction with PLX-4720 (0.5 nM) turned out to be 0.827 ± 0.0092; with PLX-4720 (1 nM), 0.878 ± 0.15; with PLX-4720 (5 nM) it was 0.82 ± 0.15; with PLX-4720 (10 nM), 0.787 ± 0.06; with PLX-4720 (50 nM) it was 0.788 ± 0.17; with PLX-4720 (100 nM) it was 0.888 ± 0.042. For the same test system, the surviving fraction turned out to be 0.824 ± 0.08 with PLX-4720 (500 nM); 0.927 ± 0.098 with PLX-4720 (1000 nM); 1.18 ± 0.041 with EVEROLIMUS (0.5 nM); 1.08 ± 0.03 in the assay with EVEROLIMUS (1 nM); 1.19 ± 0.025 in the assay with EVEROLIMUS (5 nM); 0.998 ± 0.05 with EVEROLIMUS (10 nM). Moreover, the surviving fraction was 1.02 ± 0.099 in the assay with EVEROLIMUS (50 nM), 1 ± 0.041 with EVEROLIMUS (100 nM), 0.974 ± 0.026 with EVEROLIMUS (500 nM) and 0.951 ± 0.056 with EVEROLIMUS (1000 nM).

Regarding CAL72 BONE, the surviving fraction stood at 0.969 ± 0.041 with PLX-4720 (0.5 nM); 1.02 ± 0.036 with PLX-4720 (1 nM); 0.964 ± 0.015 with PLX-4720 (5 nM); 1.03 ± 0.035 with PLX-4720 (10 nM); 1.076 ± 0.006 with PLX-4720 (50 nM); 1.104 ± 0.011 with PLX-4720 (100 nM). In addition, the surviving fraction was found to be 1.09 ± 0.04 with PLX-4720 (500 nM); 1.08 ± 0.036 in the assay with PLX-4720 (1000 nM); 0.967 ± 0.17 with EVEROLIMUS (0.5 nM); 0.87 ± 0.16 in the assay with EVEROLIMUS (1 nM); 0.707 ± 0.12 with EVEROLIMUS (5 nM); 0.671 ± 0.1 with EVEROLIMUS (10 nM). The surviving fraction with EVEROLIMUS (50 nM) was found to be 0.61 ± 0.056; in the assay with EVEROLIMUS (100 nM) it was 0.641 ± 0.057; with EVEROLIMUS (500 nM), 0.576 ± 0.028; in the assay with EVEROLIMUS (1000 nM), 0.608 ± 0.026.
